Test results reported in ChEMBL document CHEMBL2406961, “Inhibitors of ATR Kinase for Treatment of Cancer” (ACS Med Chem Lett, 2013).

Molecular target: Serine/threonine-protein kinase ATR (Homo sapiens, UniProt Q13535)
Experiment: Inhibition of ATR (unknown origin)

Chain of Serine/threonine-protein kinase ATR (Q13535 whole entry): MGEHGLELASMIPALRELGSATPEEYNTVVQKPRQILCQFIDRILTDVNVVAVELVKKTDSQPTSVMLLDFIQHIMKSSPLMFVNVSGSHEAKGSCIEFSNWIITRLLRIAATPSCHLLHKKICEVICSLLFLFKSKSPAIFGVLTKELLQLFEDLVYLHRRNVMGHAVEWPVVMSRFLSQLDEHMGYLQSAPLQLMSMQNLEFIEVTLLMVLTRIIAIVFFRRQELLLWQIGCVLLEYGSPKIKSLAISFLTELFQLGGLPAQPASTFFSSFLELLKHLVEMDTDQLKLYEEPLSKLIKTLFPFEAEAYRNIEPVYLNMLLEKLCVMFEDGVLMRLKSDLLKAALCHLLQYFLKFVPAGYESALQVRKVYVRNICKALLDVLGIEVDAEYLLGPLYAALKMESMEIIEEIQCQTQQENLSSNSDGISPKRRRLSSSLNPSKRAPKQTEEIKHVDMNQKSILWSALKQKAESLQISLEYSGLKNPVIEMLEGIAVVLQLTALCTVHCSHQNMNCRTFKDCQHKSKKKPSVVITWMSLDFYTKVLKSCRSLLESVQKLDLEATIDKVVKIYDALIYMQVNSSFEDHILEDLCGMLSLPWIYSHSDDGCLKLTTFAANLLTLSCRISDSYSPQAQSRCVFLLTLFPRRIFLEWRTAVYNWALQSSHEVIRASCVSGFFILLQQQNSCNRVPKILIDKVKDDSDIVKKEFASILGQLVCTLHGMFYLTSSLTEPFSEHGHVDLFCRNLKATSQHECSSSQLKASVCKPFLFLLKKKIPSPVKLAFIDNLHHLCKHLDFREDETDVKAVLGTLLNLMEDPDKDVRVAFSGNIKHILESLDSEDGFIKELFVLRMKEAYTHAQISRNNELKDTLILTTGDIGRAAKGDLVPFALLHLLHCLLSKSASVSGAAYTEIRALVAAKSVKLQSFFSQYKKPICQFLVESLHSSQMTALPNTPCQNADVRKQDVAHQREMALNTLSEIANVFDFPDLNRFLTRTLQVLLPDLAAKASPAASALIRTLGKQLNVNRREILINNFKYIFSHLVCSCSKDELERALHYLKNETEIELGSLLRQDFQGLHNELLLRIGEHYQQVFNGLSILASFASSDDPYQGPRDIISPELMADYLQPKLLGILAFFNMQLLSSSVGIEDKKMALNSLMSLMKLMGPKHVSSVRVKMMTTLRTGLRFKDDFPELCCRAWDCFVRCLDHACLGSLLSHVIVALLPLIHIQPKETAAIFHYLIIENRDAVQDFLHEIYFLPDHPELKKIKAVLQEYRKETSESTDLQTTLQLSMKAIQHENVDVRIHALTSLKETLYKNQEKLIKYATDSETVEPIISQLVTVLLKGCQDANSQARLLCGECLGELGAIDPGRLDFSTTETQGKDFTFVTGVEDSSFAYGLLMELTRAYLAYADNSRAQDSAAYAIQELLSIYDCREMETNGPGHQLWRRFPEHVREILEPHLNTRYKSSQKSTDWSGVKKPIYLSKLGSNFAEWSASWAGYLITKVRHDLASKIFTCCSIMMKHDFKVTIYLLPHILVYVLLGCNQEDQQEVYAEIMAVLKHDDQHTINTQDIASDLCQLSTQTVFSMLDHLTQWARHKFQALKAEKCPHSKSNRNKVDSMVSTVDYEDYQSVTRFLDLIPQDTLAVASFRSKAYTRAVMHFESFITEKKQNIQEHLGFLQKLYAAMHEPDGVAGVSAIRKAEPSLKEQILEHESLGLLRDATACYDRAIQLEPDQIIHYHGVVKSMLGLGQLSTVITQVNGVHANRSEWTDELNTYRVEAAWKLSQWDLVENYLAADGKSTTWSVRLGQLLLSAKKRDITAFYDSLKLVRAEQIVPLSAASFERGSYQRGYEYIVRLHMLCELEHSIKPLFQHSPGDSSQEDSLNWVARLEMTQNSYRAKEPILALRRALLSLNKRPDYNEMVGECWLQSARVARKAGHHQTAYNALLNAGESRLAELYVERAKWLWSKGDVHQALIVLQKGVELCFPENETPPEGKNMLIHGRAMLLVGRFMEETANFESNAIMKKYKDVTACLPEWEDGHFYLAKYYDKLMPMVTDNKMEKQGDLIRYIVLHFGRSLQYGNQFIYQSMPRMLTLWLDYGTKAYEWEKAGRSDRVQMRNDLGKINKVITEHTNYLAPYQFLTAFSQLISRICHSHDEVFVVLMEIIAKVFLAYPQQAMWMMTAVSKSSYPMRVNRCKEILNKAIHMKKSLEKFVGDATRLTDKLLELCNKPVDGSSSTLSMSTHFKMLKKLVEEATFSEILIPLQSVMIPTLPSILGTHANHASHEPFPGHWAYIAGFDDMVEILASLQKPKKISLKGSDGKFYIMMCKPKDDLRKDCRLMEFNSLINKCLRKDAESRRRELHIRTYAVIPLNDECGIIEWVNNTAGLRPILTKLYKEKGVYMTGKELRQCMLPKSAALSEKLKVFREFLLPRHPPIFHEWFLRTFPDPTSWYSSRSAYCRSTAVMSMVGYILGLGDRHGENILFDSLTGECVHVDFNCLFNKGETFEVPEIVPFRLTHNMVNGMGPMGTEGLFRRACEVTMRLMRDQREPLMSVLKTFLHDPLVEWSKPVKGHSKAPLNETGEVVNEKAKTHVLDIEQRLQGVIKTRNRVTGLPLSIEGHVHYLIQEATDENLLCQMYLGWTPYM

Ki	SMILES
90 nM	CC(C)S(=O)(=O)c1ccc(-c2cnc(N)c(C3CC(c4ccccc4)=NO3)n2)cc1 (configuration not stated)
16 nM	CNCc1ccc(C2=NOC(c3nc(-c4ccc(S(=O)(=O)C(C)C)cc4)cnc3N)C2)cc1 (configuration not stated)
